# Test results reported in patent publication US10072001B2, “Tank-binding kinase inhibitor compounds” (Gilead Sciences, Inc., priority 2014, dated 2018).
# pIC50: −log10 of the molar value.
# Legend:
# IKKε = IKKε (Homo sapiens (Human), UniProt Q14164); experiment: TR-FRET kinase assay, IKKε; assay type: biochemical; settings: full length recombinant IKKε 0.3 nM, 2x Km ATP, 1 μM peptide, 240 min at 25° C.; geometric mean of minimum four determinations
# Description: Biological Assay for TBK1 and IKKs:
# TBK1 = TBK1 (Homo sapiens (Human), UniProt Q9UHD2); experiment: TR-FRET kinase assay, TBK1; settings: read-out: TBK1-IC50; full length recombinant TBK1 2.5 nM, 2x Km ATP, 1 μM peptide, 240 min at 25° C.; geometric mean of minimum four determinations
# TBK1, sequence (Q9UHD2 whole entry): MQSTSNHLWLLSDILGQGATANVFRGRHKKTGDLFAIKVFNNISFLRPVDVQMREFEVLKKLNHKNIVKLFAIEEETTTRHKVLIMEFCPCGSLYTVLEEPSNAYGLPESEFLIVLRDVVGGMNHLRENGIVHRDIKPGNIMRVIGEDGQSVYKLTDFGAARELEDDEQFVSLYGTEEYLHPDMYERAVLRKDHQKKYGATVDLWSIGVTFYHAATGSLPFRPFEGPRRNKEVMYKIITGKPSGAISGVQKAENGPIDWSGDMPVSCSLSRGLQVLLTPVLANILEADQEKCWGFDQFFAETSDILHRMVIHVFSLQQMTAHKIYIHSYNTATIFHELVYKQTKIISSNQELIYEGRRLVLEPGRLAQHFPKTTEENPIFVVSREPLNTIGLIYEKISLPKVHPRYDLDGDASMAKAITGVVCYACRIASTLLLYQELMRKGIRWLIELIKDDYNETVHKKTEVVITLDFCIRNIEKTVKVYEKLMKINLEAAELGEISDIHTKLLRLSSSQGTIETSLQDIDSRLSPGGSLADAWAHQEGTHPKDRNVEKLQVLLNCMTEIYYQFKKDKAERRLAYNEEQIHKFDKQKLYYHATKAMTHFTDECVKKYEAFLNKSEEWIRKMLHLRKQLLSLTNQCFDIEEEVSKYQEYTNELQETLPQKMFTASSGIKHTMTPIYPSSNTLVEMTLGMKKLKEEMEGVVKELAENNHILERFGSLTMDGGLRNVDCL
# Description: Enzymatic activity of IKKε and TBK1 was measured using a homogeneous time resolved fluorescence resonance energy transfer (TR-FRET) assay that monitors enzyme dependent phosphorylation of a biotinylated serine/threonine peptide substrate. […] TBK1 and IKKs were expressed and purified as full length recombinant proteins. Detection reagents for the assay were purchased from Cisbio. […] After an assay reaction time of 240 minutes at 25° C., reactions were terminated with EDTA.
# Amount of phosphorylated peptide was determined by the addition of 125 nM streptavidin XL665 and europium cryptate labeled anti-phospho monoclonal antibody and the resulting TR-FRET signal was recorded on an Envision plate reader (Ex: 340 nm; Em: 615/665 nm; 100 μs delay and 200 μs read window). […] All IC50 values represent geometric mean values of a minimum of four determinations.
# IKKε, sequence (Q14164 whole entry): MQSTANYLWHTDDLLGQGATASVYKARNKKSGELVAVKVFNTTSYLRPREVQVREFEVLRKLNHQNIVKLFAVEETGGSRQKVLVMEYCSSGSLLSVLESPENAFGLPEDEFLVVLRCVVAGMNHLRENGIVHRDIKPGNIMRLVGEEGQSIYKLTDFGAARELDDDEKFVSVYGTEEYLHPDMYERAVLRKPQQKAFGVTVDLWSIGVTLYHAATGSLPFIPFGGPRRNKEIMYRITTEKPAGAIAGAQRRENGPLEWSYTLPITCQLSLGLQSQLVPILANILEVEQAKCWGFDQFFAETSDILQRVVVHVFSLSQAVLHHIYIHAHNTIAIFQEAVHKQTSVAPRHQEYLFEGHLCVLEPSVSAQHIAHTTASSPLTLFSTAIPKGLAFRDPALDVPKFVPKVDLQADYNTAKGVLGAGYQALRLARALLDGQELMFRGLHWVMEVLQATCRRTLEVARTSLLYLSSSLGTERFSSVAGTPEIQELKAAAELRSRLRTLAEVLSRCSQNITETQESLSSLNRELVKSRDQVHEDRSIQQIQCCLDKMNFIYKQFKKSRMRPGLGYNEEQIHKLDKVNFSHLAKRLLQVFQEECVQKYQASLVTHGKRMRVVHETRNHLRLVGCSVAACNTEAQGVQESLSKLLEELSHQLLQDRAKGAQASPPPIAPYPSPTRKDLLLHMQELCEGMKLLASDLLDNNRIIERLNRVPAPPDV
Compound,pIC50 (IKKε),pIC50 (TBK1)
"N#Cc1cc(-c2ccnc3[nH]c(-c4cnn(C5CCNCC5)c4)cc23)ccc1OC1CCOCC1 [Example 10, 5-(2-(1-(piperidin-4-yl)-1H-pyrazol-4-yl)-1H-pyrrolo[2,3-b]pyridin-4-yl)-2-((tetrahydro-2H-pyran-4-yl)oxy)benzonitrile]",8.76,8.91
"Cc1ccc(-c2ccnc3[nH]c(-c4ccc(N5CCOCC5)cc4)cc23)cc1C#N [Example 69, 2-methyl-5-(2-(4-morpholinophenyl)-1H-pyrrolo[2,3-b]pyridin-4-yl)benzonitrile]",< 6.00,7.10
"N#Cc1cc(-c2ccnc3[nH]c(-c4ccc(N5CCOCC5)cc4)cc23)ccc1NC(=O)C1CC1 [Example 32, N-(2-cyano-4-(2-(4-morpholinophenyl)-1H-pyrrolo[2,3-b]pyridin-4-yl)phenyl)cyclopropanecarboxamide]",< 6.00,8.03
"COc1ccc(-c2cc3c(-c4ccc(OC5CCN(C(=O)CO)CC5)c(C#N)c4)ncnc3[nH]2)cn1 [Example 130, 2-((1-(2-hydroxyacetyl)piperidin-4-yl)oxy)-5-(6-(6-methoxypyridin-3-yl)-7H-pyrrolo[2,3-d]pyrimidin-4-yl)benzonitrile]",7.97,8.26
"N#Cc1cc(-c2ncnc3[nH]c(-c4ccc(C5CCN(CC(F)(F)F)CC5)cc4)nc23)ccc1OC1CCN(C(=O)CO)CC1 [Example 257, 2-((1-(2-hydroxyacetyl)piperidin-4-yl)oxy)-5-(8-(4-(1-(2,2,2-trifluoroethyl)piperidin-4-yl)phenyl)-9H-purin-6-yl)benzonitrile]",7.86,8.42
"CC(C)(C)n1cc(-c2cc3c(-c4ccc(OC5CCOCC5)c(C#N)c4)ccnc3[nH]2)cn1 [Example 53, 5-(2-(1-(tert-butyl)-1H-pyrazol-4-yl)-1H-pyrrolo[2,3-b]pyridin-4-yl)-2-((tetrahydro-2H-pyran-4-yl)oxy)benzonitrile]",7.86,8.03
"N#Cc1cc(-c2ncnc3[nH]c(-c4ccc(N5CCOCC5)cc4)cc23)ccc1N1CC(O)C1 [Example 199, 2-(3-hydroxyazetidin-1-yl)-5-(6-(4-morpholinophenyl)-7H-pyrrolo[2,3-d]pyrimidin-4-yl)benzonitrile]",6.00,8.67
"CC(C)(C)OC(=O)N1CCC(Oc2ccc(-c3ncnc4[nH]c(-c5ccc(N6CCOCC6)c(F)c5)nc34)cc2C#N)CC1 [Example 245, tert-butyl 4-(2-cyano-4-(8-(3-fluoro-4-morpholinophenyl)-9H-purin-6-yl)phenoxy)piperidine-1-carboxylate]",6.00,6.00
"COc1cc(-c2cc3c(-c4ccc(OC5CCN(C(=O)CO)CC5)c(C#N)c4)ncnc3[nH]2)ccc1N1CCOCC1 [Example 125, 2-((1-(2-hydroxyacetyl)piperidin-4-yl)oxy)-5-(6-(3-methoxy-4-morpholinophenyl)-7H-pyrrolo[2,3-d]pyrimidin-4-yl)benzonitrile]",8.58,9.05
"COc1cc(N2CCOCC2)ccc1-c1cc2c(-c3ccc(OC4CCOCC4)c(C#N)c3)ncnc2[nH]1 [Example 137, 5-(6-(2-methoxy-4-morpholinophenyl)-7H-pyrrolo[2,3-d]pyrimidin-4-yl)-2-((tetrahydro-2H-pyran-4-yl)oxy)benzonitrile]",7.32,8.01
"N#Cc1cc(-c2ccnc3[nH]c(-c4ccc(N5CCOCC5)cc4)cc23)ccc1O[C@@H]1CCN(CC(F)F)C1 [Example 31, (R)-2-((1-(2,2-difluoroethyl)pyrrolidin-3-yl)oxy)-5-(2-(4-morpholinophenyl)-1H-pyrrolo[2,3-b]pyridin-4-yl)benzonitrile]",7.23,7.72
"CN1CCN(c2ccc(-c3cc4c(-c5ccc(OC6CCOCC6)c(C#N)c5)ncnc4[nH]3)cc2)CC1 [Example 219, 5-(6-(4-(4-methylpiperazin-1-yl)phenyl)-7H-pyrrolo[2,3-d]pyrimidin-4-yl)-2-((tetrahydro-2H-pyran-4-yl)oxy)benzonitrile]",8.47,8.60
"N#Cc1cc(-c2ncnc3[nH]c(-c4ccc(N5CCOCC5)cc4)nc23)ccc1OC1CCN(C(=O)C(F)F)CC1 [Example 248, 2-((1-(2,2-difluoroacetyl)piperidin-4-yl)oxy)-5-(8-(4-morpholinophenyl)-9H-purin-6-yl)benzonitrile]",8.01,8.44
"N#Cc1cc(-c2ncnc3[nH]c(-c4ccc(N5CCOCC5)cc4)nc23)ccc1OC1CCNCC1 [Example 204, 5-(8-(4-morpholinophenyl)-9H-purin-6-yl)-2-(piperidin-4-yloxy)benzonitrile]",7.08,7.43
"4-(2-cyano-4-(2-(4-(4-(2,2-difluoroethyl)piperazin-1-yl)phenyl)-3H-imidazo[4,5-b]pyridin-7-yl)phenoxy)piperidine-1-sulfonamide [Example 263]",8.20,8.51
"CNC(=O)c1ccc(-c2cc3c(-c4ccc(OC5CCOCC5)c(C#N)c4)ccnc3[nH]2)cc1 [Example 41, 4-(4-(3-cyano-4-((tetrahydro-2H-pyran-4-yl)oxy)phenyl)-1H-pyrrolo[2,3-b]pyridin-2-yl)-N-methylbenzamide]",8.25,8.51
"COc1cc(-c2cc3c(-c4ccc(O[C@H]5CCNC[C@H]5F)c(C#N)c4)ncnc3[nH]2)ccc1N1CCN(C2COC2)CC1 [Example 144, 2-(((3R,4S)-3-fluoropiperidin-4-yl)oxy)-5-(6-(3-methoxy-4-(4-(oxetan-3-yl)piperazin-1-yl)phenyl)-7H-pyrrolo[2,3-d]pyrimidin-4-yl)benzonitrile]",7.19,8.21
"N#Cc1cc(-c2ccnc3[nH]c(-c4ccc(N)nc4)cc23)ccc1OC1CCOCC1 [Example 11, 5-(2-(6-aminopyridin-3-yl)-1H-pyrrolo[2,3-b]pyridin-4-yl)-2-((tetrahydro-2H-pyran-4-yl)oxy)benzonitrile]",8.02,8.26
"N#Cc1cc(-c2ccnc3[nH]c(-c4ccc(N5CCOCC5)cc4)cc23)ncc1OC1CCOCC1 [Example 26, 2-(2-(4-morpholinophenyl)-1H-pyrrolo[2,3-b]pyridin-4-yl)-5-((tetrahydro-2H-pyran-4-yl)oxy)isonicotinonitrile]",8.16,8.46
"N#Cc1cc(-c2ccnc3[nH]c(-c4ccc(N5CCOCC5)cc4)cc23)ccc1OC1COC1 [Example 235, 5-(2-(4-morpholinophenyl)-1H-pyrrolo[2,3-b]pyridin-4-yl)-2-(oxetan-3-yloxy)benzonitrile]",6.99,8.03
"N#Cc1cc(-c2ncnc3[nH]c(-c4ccc(CN5CCOCC5)cc4)nc23)ccc1OC1CCOCC1 [Example 252, 5-(8-(4-(morpholinomethyl)phenyl)-9H-purin-6-yl)-2-((tetrahydro-2H-pyran-4-yl)oxy)benzonitrile]",8.31,8.48
"N#Cc1cc(-c2ncnc3[nH]c(-c4ccc(N5CCN(C6COC6)CC5)cc4)nc23)ccc1OC1CCOCC1 [Example 232, 5-(8-(4-(4-(oxetan-3-yl)piperazin-1-yl)phenyl)-9H-purin-6-yl)-2-((tetrahydro-2H-pyran-4-yl)oxy)benzonitrile]",7.81,8.35
